Patent US8952024B2, “Herbicidal pyrimidone derivatives” (E I du Pont de Nemours and Company, priority 2009, dated 2015)

Columns and labels:
Experiment in all cases: Test B pre-/postemergence plant response
Assay type in all cases: in vivo
[1] = system: cocklebur (Xanthium strumarium)
Summary of the method: (§1)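 Ratings reflect visual comparison with untreated controls 13 to 15 days after application, from 0 (no effect) to 100 (complete control). Application was preemergence to seeded loam/sand soil or postemergence to 1- to 4-leaf plants, with compound in a non-phytotoxic, surfactant-containing solvent.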

[2] = system: johnsongrass (Sorghum halepense)
Summary of the method: as §1

[3] = system: green foxtail (Setaria viridis)
Summary of the method: as §1

[4] = system: large crabgrass (Digitaria sanguinalis)
Summary of the method: as §1

[5] = system: woolly cupgrass (Eriochloa villosa)
Summary of the method: as §1

[6] = system: velvetleaf (Abutilon theophrasti)
Summary of the method: as §1

kochia (Kochia scoparia) = system: kochia (Kochia scoparia)
Summary of the method: as §1

[7] = system: giant foxtail (Setaria faberii)
Summary of the method: as §1

[8] = system: morningglory (Ipomoea coccinea)
Summary of the method: as §1

[9] = system: blackgrass (Alopecurus myosuroides)
Summary of the method: as §1

[10] = system: downy bromegrass (Bromus tectorum)
Summary of the method: as §1

[11] = system: goosegrass (Eleusine indica)
Summary of the method: as §1

[12] = system: Surinam grass (Brachiaria decumbens)
Summary of the method: as §1

[13] = system: yellow nutsedge (Cyperus esculentus)
Summary of the method: as §1

wild oat (Avena fatua) = system: wild oat (Avena fatua)
Summary of the method: as §1

corn (Zea mays) = system: corn (Zea mays)
Summary of the method: as §1

soybean (Glycine max) = system: soybean (Glycine max)
Summary of the method: as §1

[14] = 31 g ai/ha, postemergence, scale 0 to 100, 0 is no effect, 100 is complete control
[15] = 62 g ai/ha, postemergence, 0 is no effect, 100 is complete control, 13 to 15 days
[16] = Postemergence, 125 g ai/ha, visual rating after 13 to 15 days, scale 0 (no effect) to 100 (complete control)
[17] = Postemergence, 250 g ai/ha, scale 0 to 100 (0 no effect, 100 complete control)
[18] = Preemergence, 31 g ai/ha, scale 0 to 100 (0 no effect, 100 complete control)
[19] = Preemergence, 62 g ai/ha, scale 0 to 100, 0 no effect, 100 complete control
[20] = Preemergence, 125 g ai/ha, scale 0 to 100, 0 no effect, 100 complete control
[21] = Preemergence, 250 g ai/ha, 0 to 100 scale

**Q.** Which results are given for `CCCCn1c(CCC)ncc(C(=O)C2=C(O)CCCC2=O)c1=O` [Compound 75]?
**A.** Plant response rating, Cocklebur [1, 14]: 40; Cocklebur plant response rating (0 to 100 scale) [1, 15]: 80; Plant response rating, Cocklebur [1, 16]: 95; Plant response rating, Cocklebur [1, 17]: 95; Plant response rating, Cocklebur [1, 18]: 10; Plant response rating, Cocklebur [1, 19]: 20; Plant response rating, Cocklebur [1, 20]: 75; Cocklebur plant response rating [1, 21]: 90; Plant response rating, Johnsongrass [2, 14]: 0; Johnsongrass plant response rating (0 to 100 scale) [2, 15]: 10; Plant response rating, Johnsongrass [2, 16]: 20; Plant response rating, Johnsongrass [2, 17]: 75; Plant response rating, Johnsongrass [2, 18]: 0; Plant response rating, Johnsongrass [2, 19]: 10; Plant response rating, Johnsongrass [2, 20]: 65; Johnsongrass plant response rating [2, 21]: 70; Plant response rating, Foxtail, Green [3, 14]: 65; Foxtail, Green plant response rating (0 to 100 scale) [3, 15]: 85; Plant response rating, Foxtail, Green [3, 16]: 90; Plant response rating, Foxtail, Green [3, 17]: 90; Plant response rating, Foxtail, Green [3, 18]: 5; Plant response rating, Foxtail, Green [3, 19]: 50; Plant response rating, Foxtail, Green [3, 20]: 50; Foxtail, Green plant response rating [3, 21]: 98; Plant response rating, Crabgrass, Large [4, 14]: 95; Crabgrass, Large plant response rating (0 to 100 scale) [4, 15]: 98; Plant response rating, Crabgrass, Large [4, 16]: 100; Plant response rating, Crabgrass, Large [4, 17]: 100; Plant response rating, Crabgrass, Large [4, 18]: 98; Plant response rating, Crabgrass, Large [4, 19]: 100; Plant response rating, Crabgrass, Large [4, 20]: 100; Crabgrass, Large plant response rating [4, 21]: 100; Plant response rating, Cupgrass, Woolly [5, 14]: 10; Cupgrass, Woolly plant response rating (0 to 100 scale) [5, 15]: 55; Plant response rating, Cupgrass, Woolly [5, 16]: 55; Plant response rating, Cupgrass, Woolly [5, 17]: 80; Plant response rating, Cupgrass, Woolly [5, 18]: 5; Plant response rating, Cupgrass, Woolly [5, 20]: 55; Cupgrass, Woolly plant response rating [5, 21]: 75; Plant response rating, Velvetleaf [6, 14]: 100; Velvetleaf plant response rating (0 to 100 scale) [6, 15]: 100; Plant response rating, Velvetleaf [6, 16]: 100; Plant response rating, Velvetleaf [6, 17]: 100; Plant response rating, Velvetleaf [6, 18]: 100; Plant response rating, Velvetleaf [6, 19]: 100; Plant response rating, Velvetleaf [6, 20]: 100; Velvetleaf plant response rating [6, 21]: 100; Plant response rating, Kochia (kochia (Kochia scoparia); [14]): 75; Kochia plant response rating (0 to 100 scale) (kochia (Kochia scoparia); [15]): 95; Plant response rating, Kochia (kochia (Kochia scoparia); [16]): 100; Plant response rating, Kochia (kochia (Kochia scoparia); [17]): 100; Plant response rating, Kochia (kochia (Kochia scoparia); [18]): 80; Plant response rating, Kochia (kochia (Kochia scoparia); [19]): 90; Plant response rating, Kochia (kochia (Kochia scoparia); [20]): 90; Kochia plant response rating (kochia (Kochia scoparia); [21]): 95; Plant response rating, Foxtail, Giant [7, 14]: 75; Foxtail, Giant plant response rating (0 to 100 scale) [7, 15]: 80; Plant response rating, Foxtail, Giant [7, 16]: 85; Plant response rating, Foxtail, Giant [7, 17]: 95; Plant response rating, Foxtail, Giant [7, 18]: 0; Plant response rating, Foxtail, Giant [7, 19]: 25; Plant response rating, Foxtail, Giant [7, 20]: 80; Foxtail, Giant plant response rating [7, 21]: 80; Plant response rating, Morningglory [8, 14]: 20; Morningglory plant response rating (0 to 100 scale) [8, 15]: 90; Plant response rating, Morningglory [8, 16]: 95; Plant response rating, Morningglory [8, 17]: 95; Plant response rating, Morningglory [8, 18]: 0; Plant response rating, Morningglory [8, 19]: 60; Plant response rating, Morningglory [8, 20]: 75; Morningglory plant response rating [8, 21]: 90; Plant response rating, Blackgrass [9, 14]: 0; Blackgrass plant response rating (0 to 100 scale) [9, 15]: 0; Plant response rating, Blackgrass [9, 16]: 0; Plant response rating, Blackgrass [9, 17]: 20; Plant response rating, Blackgrass [9, 18]: 0; Plant response rating, Blackgrass [9, 19]: 0; Plant response rating, Blackgrass [9, 20]: 5; Blackgrass plant response rating [9, 21]: 10; Plant response rating, Bromegrass, Downy [10, 14]: 5; Bromegrass, Downy plant response rating (0 to 100 scale) [10, 15]: 20; Plant response rating, Bromegrass, Downy [10, 16]: 35; Plant response rating, Bromegrass, Downy [10, 17]: 50; Plant response rating, Bromegrass, Downy [10, 18]: 0; Plant response rating, Bromegrass, Downy [10, 19]: 0; Plant response rating, Bromegrass, Downy [10, 20]: 0; Bromegrass, Downy plant response rating [10, 21]: 0; Plant response rating, Goosegrass [11, 14]: 75; Goosegrass plant response rating (0 to 100 scale) [11, 15]: 80; Plant response rating, Goosegrass [11, 16]: 95; Plant response rating, Goosegrass [11, 17]: 98; Plant response rating, Goosegrass [11, 18]: 95; Plant response rating, Goosegrass [11, 19]: 100; Plant response rating, Goosegrass [11, 20]: 100; Goosegrass plant response rating [11, 21]: 100; Plant response rating, Surinam Grass [12, 14]: 50; Surinam Grass plant response rating (0 to 100 scale) [12, 15]: 50; Plant response rating, Surinam Grass [12, 16]: 70; Plant response rating, Surinam Grass [12, 17]: 85; Plant response rating, Surinam Grass [12, 18]: 40; Plant response rating, Surinam Grass [12, 19]: 60; Plant response rating, Surinam Grass [12, 20]: 60; Surinam Grass plant response rating [12, 21]: 75; Plant response rating, Nutsedge, Yellow [13, 14]: 10; Nutsedge, Yellow plant response rating (0 to 100 scale) [13, 15]: 65; Plant response rating, Nutsedge, Yellow [13, 16]: 70; Plant response rating, Nutsedge, Yellow [13, 17]: 75; Plant response rating, Nutsedge, Yellow [13, 18]: 60; Plant response rating, Nutsedge, Yellow [13, 19]: 80; Plant response rating, Nutsedge, Yellow [13, 20]: 90; Nutsedge, Yellow plant response rating [13, 21]: 90; Plant response rating, Oat, Wild (wild oat (Avena fatua); [14]): 0; Oat, Wild plant response rating (0 to 100 scale) (wild oat (Avena fatua); [15]): 20; Plant response rating, Oat, Wild (wild oat (Avena fatua); [16]): 50; Plant response rating, Oat, Wild (wild oat (Avena fatua); [17]): 60; Plant response rating, Oat, Wild (wild oat (Avena fatua); [18]): 0; Plant response rating, Oat, Wild (wild oat (Avena fatua); [19]): 0; Plant response rating, Oat, Wild (wild oat (Avena fatua); [20]): 0; Oat, Wild plant response rating (wild oat (Avena fatua); [21]): 0; Plant response rating, Corn (corn (Zea mays); [14]): 0; Corn plant response rating (0 to 100 scale) (corn (Zea mays); [15]): 0; Plant response rating, Corn (corn (Zea mays); [16]): 20; Plant response rating, Corn (corn (Zea mays); [17]): 55; Plant response rating, Corn (corn (Zea mays); [18]): 0; Plant response rating, Corn (corn (Zea mays); [19]): 0; Plant response rating, Corn (corn (Zea mays); [20]): 0; Corn plant response rating (corn (Zea mays); [21]): 0; Plant response rating, Soybean (soybean (Glycine max); [14]): 80; Soybean plant response rating (0 to 100 scale) (soybean (Glycine max); [15]): 95; Plant response rating, Soybean (soybean (Glycine max); [16]): 98; Plant response rating, Soybean (soybean (Glycine max); [17]): 98
